Results published in patent publication US9624214B2, “Amino-substituted imidazo[1,2-a]pyridinecarboxamides and their use” (BAYER PHARMA AKTIENGESELLSCHAFT, priority 2012, dated 2017).
Counter-ions that a name gives are not always drawn.

Biological target: T1, recombinant guanylate cyclase reporter cell line (Rattus norvegicus, UniProt P19686+P20595)
T1 construct: expressed in transfected cells
T1 sequence (P20595 1-619): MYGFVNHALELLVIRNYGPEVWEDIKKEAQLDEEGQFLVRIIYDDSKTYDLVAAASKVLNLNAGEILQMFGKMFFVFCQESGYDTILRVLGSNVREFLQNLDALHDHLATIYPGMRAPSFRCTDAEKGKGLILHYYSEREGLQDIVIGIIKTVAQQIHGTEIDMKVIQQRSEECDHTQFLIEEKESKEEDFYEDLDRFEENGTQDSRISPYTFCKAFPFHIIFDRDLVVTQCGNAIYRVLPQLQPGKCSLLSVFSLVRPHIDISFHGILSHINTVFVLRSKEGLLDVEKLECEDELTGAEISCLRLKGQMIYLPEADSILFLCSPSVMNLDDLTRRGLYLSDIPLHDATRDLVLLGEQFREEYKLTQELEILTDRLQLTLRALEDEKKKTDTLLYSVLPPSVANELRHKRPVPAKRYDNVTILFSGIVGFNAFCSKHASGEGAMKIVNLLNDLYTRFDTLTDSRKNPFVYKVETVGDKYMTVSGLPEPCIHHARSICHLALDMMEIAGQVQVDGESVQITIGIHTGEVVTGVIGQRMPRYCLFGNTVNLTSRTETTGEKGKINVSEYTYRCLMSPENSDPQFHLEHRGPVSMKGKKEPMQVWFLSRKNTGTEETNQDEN
T1 sequence (P19686 1-690): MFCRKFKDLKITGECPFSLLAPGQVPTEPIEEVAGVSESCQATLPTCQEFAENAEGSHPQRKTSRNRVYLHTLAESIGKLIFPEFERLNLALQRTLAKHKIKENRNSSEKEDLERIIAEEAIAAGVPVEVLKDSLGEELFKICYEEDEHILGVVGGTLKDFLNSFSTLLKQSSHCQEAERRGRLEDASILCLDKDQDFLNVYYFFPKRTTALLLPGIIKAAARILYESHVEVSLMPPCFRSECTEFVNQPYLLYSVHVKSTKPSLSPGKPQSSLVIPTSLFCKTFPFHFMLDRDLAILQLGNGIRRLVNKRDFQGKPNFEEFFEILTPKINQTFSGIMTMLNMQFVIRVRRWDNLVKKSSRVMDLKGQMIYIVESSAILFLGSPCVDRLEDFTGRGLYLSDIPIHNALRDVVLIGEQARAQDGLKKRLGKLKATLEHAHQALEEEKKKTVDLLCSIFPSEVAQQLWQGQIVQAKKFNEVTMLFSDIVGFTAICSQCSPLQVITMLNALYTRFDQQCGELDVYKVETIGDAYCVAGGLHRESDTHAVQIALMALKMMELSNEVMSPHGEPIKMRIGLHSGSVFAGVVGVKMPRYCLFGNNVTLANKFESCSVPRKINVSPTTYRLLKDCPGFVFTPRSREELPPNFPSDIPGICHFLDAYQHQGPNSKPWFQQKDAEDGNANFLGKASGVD
Assay: B-2. Action on recombinant guanylate cyclase reporter cell line
Assay type: cell-based
Settings: MEC = minimal effective concentration; in some cases mean values from individual determinations
Summary of the method: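 MEC values, meaning the lowest concentration producing a detectable response, were taken from a recombinant cyclase reporter cell assay. Where repeated, individual determinations were averaged.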

`Cc1cc(OCc2c(F)ccc(F)c2F)c2nc(C)c(C(=O)NCC(C)(N)CF)n2c1` (single isomer, unassigned; enantiomer b) [Example 286, ent-N-(2-amino-3-fluoro-2-methylpropyl)-2,6-dimethyl-8-[(2,3,6-trifluorobenzyl)oxy]imidazo[1,2-a]pyridine-3-carboxamide (Enantiomer B)] was tested, and the MEC was 0.1 µM.

In the case of `CCCC(C)(N)CNC(=O)c1c(C)nc2c(OCc3c(F)cccc3F)cc(C(F)F)cn12` (single isomer, unassigned; enantiomer b) [Example 289, ent-N-(2-amino-2-methylpentyl)-8-[(2,6-difluorobenzyl)oxy]-6-(difluoromethyl)-2-methylimidazo[1,2-a]pyridine-3-carboxamide Formate (Enantiomer B)], the MEC is reported as 0.3 µM.

In the case of `CCCC(C)(N)CNC(=O)c1c(C)nc2c(OCc3c(F)cccc3F)cc(C(F)F)cn12` (single isomer, unassigned; enantiomer b) [Example 290, ent-N-(2-amino-2-methylpentyl)-8-[(2,6-difluorobenzyl)oxy]-6-(difluoromethyl)-2-methylimidazo[1,2-a]pyridine-3-carboxamide (Enantiomer B)], the MEC is reported as 0.3 µM.

For `Cc1nc2c(OCc3c(F)cccc3F)cc(C(F)F)cn2c1C(=O)NCC(C)(N)CF` (single isomer, unassigned; enantiomer b) [Example 292, ent-N-(2-amino-3-fluoro-2-methylpropyl)-8-[(2,6-difluorobenzyl)oxy]-6-(difluoromethyl)-2-methylimidazo[1,2-a]pyridine-3-carboxamide (Enantiomer B)], the MEC was 0.03 µM.

Molecule `Cc1cc(OCc2c(F)cccc2F)c2nc(C)c(C(=O)NC3CCC3N)n2c1` (single isomer, unassigned; enantiomer b) [Example 329, ent-N-(2-aminocyclobutyl)-8-[(2,6-difluorobenzyl)oxy]-2,6-dimethylimidazo[1,2-a]pyridine-3-carboxamide (Enantiomer B)] has an MEC of 0.30 µM.

`Cc1cc(OCc2c(F)cccc2F)c2nc(C)c(C(=O)NC3CCC3(C)N)n2c1` (single isomer, unassigned; enantiomer b) [Example 333, ent-N-[2-amino-2-methylcyclobutyl]-8-[(2,6-difluorobenzyl)oxy]-2,6-dimethylimidazo[1,2-a]pyridine-3-carboxamide (Enantiomer B)] showed an MEC of 1.00 µM.

Work on `Cc1cc(OCc2c(F)cccc2F)c2nc(C)c(C(=O)NC3(C)CCC3(C)N)n2c1` (single isomer, unassigned; enantiomer b) [Example 337, ent-N-[(2-amino-1,2-dimethylcyclobutyl]-8-[(2,6-difluorobenzyl)oxy]-2,6-dimethylimidazo[1,2-a]pyridine-3-carboxamide (Enantiomer B)] yielded an MEC of 0.55 µM.

For `Cc1cc(OCc2c(F)cccc2F)c2nc(C)c(C(=O)NCC(N)C#N)n2c1` (single isomer, unassigned; enantiomer b) [Example 402, ent-N-(2-amino-2-cyanoethyl)-8-[(2,6-difluorobenzyl)oxy]-2,6-dimethylimidazo[1,2-a]pyridine-3-carboxamide (Enantiomer B)], the MEC was 0.30 µM.

Work on `Cc1cc(OCc2c(F)cccc2F)c2nc(C)c(C(=O)NCC(C)(N)CCC(F)(F)F)n2c1` (single isomer, unassigned; enantiomer b) [Example 409, ent-N-(2-amino-5,5,5-trifluoro-2-methylpentyl)-8-[(2,6-difluorobenzyl)oxy]-2,6-dimethylimidazo[1,2-a]pyridine-3-carboxamide (Enantiomer B)] yielded an MEC of 0.03 µM.

Molecule `Cc1cc(OCc2c(F)ccc(F)c2F)c2nc(C)c(C(=O)NCC(C)(N)CCC(F)(F)F)n2c1` (single isomer, unassigned; enantiomer b) [Example 411, ent-N-(2-amino-5,5,5-trifluoro-2-methylpentyl)-2,6-dimethyl-8-[(2,3,6-trifluorobenzyl)oxy]imidazo[1,2-a]pyridine-3-carboxamide (Enantiomer B)] has an MEC of 0.03 µM.

Molecule `Cc1nc2c(OCc3c(F)cccc3F)cc(Cl)cn2c1C(=O)NC1CNCc2ccccc21` (single isomer, unassigned; ent-6) [Example 107, ent-6-chloro-8-[(2,6-difluorobenzyl)oxy]-2-methyl-N-(1,2,3,4-tetrahydroisoquinolin-4-yl)imidazo[1,2-a]pyridine-3-carboxamide] has an MEC of 0.30 µM.

In the case of `Cc1nc2c(OCc3c(F)cccc3F)cc(Cl)cn2c1C(=O)NC1CNCc2ccccc21` (single isomer, unassigned; ent-6) [Example 108, ent-6-chloro-8-[(2,6-difluorobenzyl)oxy]-2-methyl-N-(1,2,3,4-tetrahydroisoquinolin-4-yl)imidazo[1,2-a]pyridine-3-carboxamide], the MEC is reported as 1.00 µM.

For `Cc1nc2c(OCc3c(F)cccc3F)cc(Cl)cn2c1C(=O)NCC1CCCCN1` (single isomer, unassigned; ent-6) [Example 190, ent-6-Chloro-8-[(2,6-difluorobenzyl)oxy]-2-methyl-N-(piperidin-2-ylmethyl)imidazo[1,2-a]-pyridine-3-carboxamide], the MEC was 1.00 µM.

Work on `Cc1nc2c(OCc3c(F)cccc3F)cc(Cl)cn2c1C(=O)NCC1CCCCN1` (single isomer, unassigned; ent-6) [Example 191, ent-6-Chloro-8-[(2,6-difluorobenzyl)oxy]-2-methyl-N-(piperidin-2-ylmethyl)imidazo[1,2-a]-pyridine-3-carboxamide] yielded an MEC of 1.00 µM.

`Cc1nc2c(OCc3c(F)cccc3F)cccn2c1C(=O)NC1CNc2ccccc21` (single isomer, unassigned; ent-8) [Example 47, ent-8-[(2,6-Difluorobenzyl)oxy]-N-(2,3-dihydro-1H-indol-3-yl)-2-methylimidazo[1,2-a]pyridine-3-carboxamide] gave an MEC of 0.30 µM.

In the case of `Cc1nc2c(OCc3c(F)cccc3F)cccn2c1C(=O)NC1CCNc2ccccc21` (single isomer, unassigned; ent-8) [Example 52, ent-8-[(2,6-Difluorobenzyl)oxy]-2-methyl-N-(1,2,3,4-tetrahydroquinolin-4-yl)imidazo[1,2-a]-pyridine-3-carboxamide], the MEC is reported as 0.03 µM.

Molecule `Cc1nc2c(OCc3c(F)cccc3F)cccn2c1C(=O)NC1CNc2ccccc2C1` (single isomer, unassigned; ent-8) [Example 81, ent-8-[(2,6-Difluorobenzyl)oxy]-2-methyl-N-(1,2,3,4-tetrahydroquinolin-3-yl)imidazo[1,2-a]-pyridine-3-carboxamide] has an MEC of 1.00 µM.

`Cc1nc2c(OCc3c(F)cccc3F)cccn2c1C(=O)NC1CCNc2ccc(F)cc21` (single isomer, unassigned; ent-8) [Example 105, ent-8-[(2,6-difluorobenzyl)oxy]-N-(6-fluoro-1,2,3,4-tetrahydroquinolin-4-yl)-2-methylimidazo[1,2-a] pyridine-3-carboxamide] gave an MEC of 0.30 µM.

`Cc1nc2c(OCc3c(F)cccc3F)cccn2c1C(=O)NC1CCNc2ccc(F)cc21` (single isomer, unassigned; ent-8) [Example 106, ent-8-[(2,6-difluorobenzyl)oxy]-N-(6-fluoro-1,2,3,4-tetrahydroquinolin-4-yl)-2-methylimidazo[1,2-a] pyridine-3-carboxamide] gave an MEC of 0.03 µM.

Work on `Cc1nc2c(OCc3c(F)cccc3F)cccn2c1C(=O)NC1CNCc2ccccc21` (single isomer, unassigned; ent-8) [Example 109, ent-8-[(2,6-difluorobenzyl)oxy]-2-methyl-N-(1,2,3,4-tetrahydroisoquinolin-4-yl)imidazo[1,2-a]pyridine-3-carboxamide] yielded an MEC of 1.00 µM.

In the case of `Cc1nc2c(OCc3c(F)cccc3F)cccn2c1C(=O)NC1CNCc2ccccc21` (single isomer, unassigned; ent-8) [Example 110, ent-8-[(2,6-difluorobenzyl)oxy]-2-methyl-N-(1,2,3,4-tetrahydroisoquinolin-4-yl)imidazo[1,2-a]pyridine-3-carboxamide], the MEC is reported as 0.30 µM.
